Measured values: ChEMBL document CHEMBL3046928, “Skimmianine, a furoquinoline alkaloid from Zanthoxylum nitidum as a potential acetylcholinesterase inhibitor” (Med Chem Res, 2012)
The source made the active and inactive calls. The calls are words filed in the database; no cut-off is given here.

What was measured:
[1] = target: T1, Acetylcholinesterase (Homo sapiens, UniProt P22303)
[2] = target: T1, Acetylcholinesterase; settings: at 0.1 mg/mL
[3] = target: T1, Acetylcholinesterase; test: Inhibition of AChE (unknown origin) at 10 mg/ml after 20 min by TLC bioautographic assay

T1 sequence (P22303 whole entry): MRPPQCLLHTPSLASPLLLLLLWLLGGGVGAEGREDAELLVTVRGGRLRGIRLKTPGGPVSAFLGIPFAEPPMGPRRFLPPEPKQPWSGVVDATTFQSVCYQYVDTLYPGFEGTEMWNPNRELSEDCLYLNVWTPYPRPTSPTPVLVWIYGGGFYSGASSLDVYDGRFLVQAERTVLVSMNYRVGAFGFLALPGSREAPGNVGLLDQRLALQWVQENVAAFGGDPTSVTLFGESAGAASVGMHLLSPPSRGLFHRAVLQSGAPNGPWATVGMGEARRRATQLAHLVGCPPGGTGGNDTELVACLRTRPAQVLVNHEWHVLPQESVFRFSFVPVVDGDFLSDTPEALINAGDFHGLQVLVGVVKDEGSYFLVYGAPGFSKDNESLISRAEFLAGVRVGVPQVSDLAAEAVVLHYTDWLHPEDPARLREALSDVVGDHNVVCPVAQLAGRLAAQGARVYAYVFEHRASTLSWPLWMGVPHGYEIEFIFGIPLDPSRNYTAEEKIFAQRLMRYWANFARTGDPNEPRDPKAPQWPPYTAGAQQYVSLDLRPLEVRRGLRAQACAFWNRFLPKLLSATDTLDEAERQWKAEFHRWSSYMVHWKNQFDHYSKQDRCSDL

| SMILES | IC50 [1] | inhibition [2] [%] | IC50 ([1]; read-out: IC50 (converted)) [µM] | inhibition [3] |
| --- | --- | --- | --- | --- |
| COc1cccc2c3c(c(=O)n(C)c12)[C@@H](O)[C@H](O)C(C)(C)O3 (relative stereo) [REL-ZANTHODIOLINE] | Not Active | 34.4 | – | – |
| COc1cc2oc(=O)ccc2c(OC)c1OC [5,6,7-TRIMETHOXYCOUMARIN] | – | 49.7 | > 423 | – |
| COc1c(C[C@H](C)C(C)(C)O)c(=O)n(C)c2ccccc12 [(-)-(S)-EDULININE] | Not Active | 19.4 | – | – |
| COc1c2ccccc2nc2occc12 [DICTAMNINE] | Not Active | 12.6 | – | – |
| COc1cc(=O)[nH]c2c(OC)cccc12 [EDULITINE] | – | 45.1 | > 487 | – |
| COc1c2ccoc2nc2c(OC)cccc12 [GAMMA-FAGARINE] | Not Active | 24.3 | – | – |
| COc1c2[nH]c3occc3c(OC)c-2ccc1=O [HAPLOPINE] | – | 51.9 | > 408 | – |
| COc1ccc(C(=O)[C@@H]2CO[C@H](c3ccc4c(c3)OCO4)[C@H]2CO)cc1OC [MAGNOLONE] | Not Active | 9.9 | – | – |
| COc1ccc2c(OC)c3ccoc3nc2c1OC [SKIMMIANINE] | – | 91.3 | 33.2 | Active |
| COc1cc2oc(=O)ccc2c(OC)c1C[C@@H](O)C(C)(C)O [TODDALOLACTONE] | Not Active | 33.9 | – | – |
